Measured values published in patent US20070178581A1, “Screening method and apparatus for identifying a reactive compound bonding with a target compound” (SHIMADZU CORPORATION, priority 2006, published 2007).

Test system: WGA (wheat germ lectin)
Test: Bonding of reactive compound with WGA, analysed by elution from the size-excluding first dimension column
Assay type: binding
Settings: 50 mM phosphoric acid buffer pH 6.8/0.8% NaCl, 25° C.
Procedure: FIGS. 8A and 8B show the results of the analysis of the components eluted in the first dimension column in the example shown in FIG. 5. […] The sample used consisted of WGA (1 mg/mL) for the target compound or protein, and p-nitrophenyl-di-N-acetyl-β-chitobioside (0.1 mg/mL) for the reactive compounds. For the first dimension mobile phase, 50 mM phosphoric acid buffer (pH 6.8)/0.8% NaCl solution was used, which was fed at the rate of 0.05 mL/minute. For the first dimension column 10a, a silica-based size-excluding DIOL column (product of Shimadzu Corporation) of 150 mm in length and 2 mm in internal diameter was used, while setting the column oven temperature at 25° C. In the measurements that produced the chromatogram shown in FIG. 8B, 30 μL of WGA or protein was suctioned by the sample injection nozzle 32a, and then 5 μL of p-nitrophenyl-di-N-acetyl-β-chitobioside was suctioned, followed by the injection of the sample from the sample injection nozzle 32a into the sample injection port 8. In FIGS. 8A and 8B, the peaks indicated by the broken lines are the peaks obtained when p-nitrophenyl-di-N-acetyl-β-chitobioside alone was injected into the sample injection port. The peaks of p-nitrophenyl-di-N-acetyl-β-chitobioside appear in different locations in FIGS. 8A and Bbecause the scale on the horizontal axis differs, but the retention time is identical in both graphs.

CC(=O)N[C@H]1[C@H](Oc2ccc([N+](=O)[O-])cc2)O[C@H](CO)[C@@H](O[C@@H]2O[C@H](CO)[C@@H](O)[C@H](O)[C@H]2NC(C)=O)[C@@H]1O [p-nitrophenyl-di-N-acetyl-β-chitobioside]
bonding state with WGA judged from elution time (FIG. 8B) (reactive compound (5 μL) injected first, then WGA (30 μL), separately, reaction within the size-excluding column): shifted to the location of the elution time for WGA | bonding state with WGA judged from elution time (FIG. 8A) (target and reactive compound mixed beforehand and injected as a reaction solution, WGA 1 mg/mL, compound 0.1 mg/mL): has been dissociated from WGA
